Results taken from patent publication US7544701B2, “Sulfonyldihydrobenzimidazolone compounds as 5-hydroxytryptamine-6 ligands” (Wyeth, priority 2003, dated 2009).

Biological target: T1, human cloned 5-HT6 receptors (Homo sapiens, UniProt P50406)
T1 construct: expressed in transfected cells; host or cells: Hela cells
Assay: 5-HT6 binding affinity ([3H]-LSD displacement, membranes of Hela cells expressing human cloned 5-HT6 receptors)
Details: [3H]-LSD 3.0 nM, 120 min, room temperature, Hela cell membranes
Experimental: The affinity of test compounds for the serotonin 5-HT6 receptor is evaluated in the following manner. Cultured Hela cells expressing human cloned 5-HT6 receptors are harvested and centrifuged at low speed (1,000×g) for 10.0 min to remove the culture media. The harvested cells are suspended in half volume of fresh physiological phosphate buffered saline solution and recentrifuged at the same speed. This operation is repeated. The collected cells are then homogenized in ten volumes of 50 mM Tris.HCl (pH 7.4) and 0.5 mM EDTA. The homogenate is centrifuged at 40,000×g for 30.0 min and the precipitate is collected. The obtained pellet is resuspended in 10 volumes of Tris.HCl buffer and recentrifuged at the same speed. The final pellet is suspended in a small volume of Tris.HCl buffer and the tissue protein content is determined in aliquots of 10-25 μl volumes. Bovine Serum Albumin is used as the standard in the protein determination according to the method described in Lowry et al., J. Biol. Chem., 193:265 (1951). The volume of the suspended cell membranes is adjusted to give a tissue protein concentration of 1.0 mg/ml of suspension. The prepared membrane suspension (10 times concentrated) is aliquoted in 1.0 ml volumes and stored at −70° C. until used in subsequent binding experiments.
Binding experiments are performed in a 96 well microtiter plate format, in a total volume of 200 μl. […] The test compounds are added in 20.0 μl volume.
The reaction is allowed to proceed in the dark for 120 min at room temperature, at which time, the bound ligand-receptor complex is filtered off on a 96 well unifilter with a Packard Filtermate® 196 Harvester. The bound complex caught on the filter disk is allowed to air dry and the radioactivity is measured in a Packard TopCount® equipped with six photomultiplier detectors, after the addition of 40.0 μl Microscint®-20 scintillant to each shallow well. The unifilter plate is heat-sealed and counted in a PackardTopCount® with a tritium efficiency of 31.0%.
Binding in the presence of varying concentrations of test compound is expressed as a percentage of specific binding in the absence of test compound. The results are plotted as log % bound versus log concentration of test compound. […] A linear regression line of data points is plotted, from which the IC50 value is determined and the Ki value is determined based upon the following equation: Ki=IC50/(1+L/KD) where L is the concentration of the radioactive ligand used and KD is the dissociation constant of the ligand for the receptor, both expressed in nM.

T1 sequence (P50406 whole entry): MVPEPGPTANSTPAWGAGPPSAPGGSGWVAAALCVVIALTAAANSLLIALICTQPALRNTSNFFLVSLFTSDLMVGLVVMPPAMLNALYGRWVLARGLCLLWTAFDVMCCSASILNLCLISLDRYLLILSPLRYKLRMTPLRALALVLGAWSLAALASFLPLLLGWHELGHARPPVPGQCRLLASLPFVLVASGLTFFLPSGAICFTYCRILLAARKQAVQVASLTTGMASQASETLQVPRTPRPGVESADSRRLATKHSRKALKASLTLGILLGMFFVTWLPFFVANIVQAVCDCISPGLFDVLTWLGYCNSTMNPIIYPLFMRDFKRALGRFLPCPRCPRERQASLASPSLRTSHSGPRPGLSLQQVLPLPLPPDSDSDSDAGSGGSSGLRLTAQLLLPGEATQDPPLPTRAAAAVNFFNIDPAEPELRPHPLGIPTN

How did the Ki turn out when “1-[(2,6-dichloroimidazo[2,1-b][1,3]thiazol-5-yl)sulfonyl]-3-(1,2,3,6-tetrahydropyridin-4-yl)-1,3-dihydro-2H-benzimidazol-2-one [Example 50]” was run?
The Ki was 18 nM.

Which Ki does the source give for `CN(C)CCn1c(=O)n(S(=O)(=O)c2ccc(Cl)s2)c2ccccc21` [Example 4, 1-[(5-Chlorothien-2-yl)sulfonyl]-3-[2-(dimethylamino)ethyl]-1,3-dihydro-2H-benzimidazol-2-one] here?
Its Ki is 43 nM.

How did the Ki turn out when `CN(C)CCn1c(=O)n(S(=O)(=O)c2c(Cl)nc3sccn23)c2ccccc21` [Example 5, 1-[(6-chloroimidazo[2,1-b][1,3]thiazol-5-yl)sulfonyl]-3-[2-(dimethylamino)ethyl]-1,3-dihydro-2H-benzimidazol-2-one] was run?
The Ki was 20 nM.

For `CN(C)CCn1c(=O)n(S(=O)(=O)c2ccc3ccccc3c2)c2ccccc21` [Example 6, 1-[2-(dimethylamino)ethyl]-3-(2-naphthylsulfonyl)-1,3-dihydro-2H-benzimidazol-2-one], which Ki is on record?
Its Ki is 17 nM.

With `CN(C)CCn1c(=O)n(S(=O)(=O)c2ccc(Br)s2)c2ccccc21` [Example 10, 1-[(5-bromothien-2-yl)sulfonyl]-3-[2-(dimethylamino)ethyl]-1,3-dihydro-2H-benzimidazol-2-one] as the compound, how does the Ki read?
The Ki was 40 nM.

How did the Ki turn out when `NCCn1c(=O)n(S(=O)(=O)c2ccc(Cl)s2)c2ccccc21` [Example 17, 1-(2-Aminoethyl)-3-[(5-chlorothien-2-yl)sulfonyl]-1,3-dihydro-2H-benzimidazol-2-one] was run?
Its Ki is 26 nM.

For `NCCn1c(=O)n(S(=O)(=O)c2c(Cl)nc3sccn23)c2ccccc21` [Example 18, 1-(2-aminoethyl)-3-[(6-chloroimidazo[2,1-b][1,3]thiazol-5-yl)sulfonyl]-1,3-dihydro-2H-benzimidazol-2-one], which Ki is on record?
The Ki was 6 nM.

How did the Ki turn out when `NCCn1c(=O)n(S(=O)(=O)c2ccc3ccccc3c2)c2ccccc21` [Example 19, 1-(2-aminoethyl)-3-(2-naphthylsulfonyl)-1,3-dihydro-2H-benzimidazol-2-one] was run?
The Ki was 23 nM.

How did the Ki turn out when `NCCn1c(=O)n(S(=O)(=O)c2ccc(Br)s2)c2ccccc21` [Example 20, 1-(2-aminoethyl)-3-[(5-bromothien-2-yl)sulfonyl]-1,3-dihydro-2H-benzimidazol-2-one] was run?
Its Ki is 26 nM.

Which Ki does the source give for `O=c1n(C2CCNCC2)c2ccccc2n1S(=O)(=O)c1ccc2ccccc2c1` [Example 22, 3-(Naphth-2-ylsulfonyl)-1-piperidin-4-yl-1,3-dihydrobenzimidazol-2-one] here?
The Ki was 20 nM.

For `O=c1n(C2CCNCC2)c2ccccc2n1S(=O)(=O)c1ccc(Cl)s1` [Example 23, 1-[(5-chlorothien-2-yl)sulfonyl]-3-piperidin-4-yl-1,3-dihydro-2H-benzimidazol-2-one], which Ki is on record?
The Ki was 20 nM.

For `O=c1n(C2CCNCC2)c2ccccc2n1S(=O)(=O)c1ccc(Br)s1` [Example 24, 1-[(5-bromothien-2-yl)sulfonyl]-3-piperidin-4-yl-1,3-dihydro-2H-benzimidazol-2-one], which Ki is on record?
Its Ki is 5 nM.

`O=c1n(C2CCNCC2)c2ccccc2n1S(=O)(=O)c1cc(Cl)c(Cl)s1` [Example 25, 1-[(4,5-dichlorothien-2-yl)sulfonyl]-3-piperidin-4-yl-1,3-dihydro-2H-benzimidazol-2-one] was tested. Which Ki did it give?
Its Ki is 32 nM.

Which Ki does the source give for `O=c1n(C2CCNCC2)c2ccccc2n1S(=O)(=O)c1cc(Cl)sc1Cl` [Example 26, 1-[(2,5-dichlorothien-3-yl)sulfonyl]-3-piperidin-4-yl-1,3-dihydro-2H-benzimidazol-2-one] here?
The Ki was 34 nM.

With `O=c1n(C2CCNCC2)c2ccccc2n1S(=O)(=O)c1cc(Br)c(Br)s1` [Example 27, 1-[(4,5-dibromothien-2-yl)sulfonyl]-3-piperidin-4-yl-1,3-dihydro-2H-benzimidazol-2-one] as the compound, how does the Ki read?
Its Ki is 27 nM.

For `O=c1n(C2CCNCC2)c2ccccc2n1S(=O)(=O)c1cc(Br)c(Cl)s1` [Example 29, 1-[(4-bromo-5-chlorothien-2-yl)sulfonyl]-3-piperidin-4-yl-1,3-dihydro-2H-benzimidazol-2-one], which Ki is on record?
Its Ki is 20 nM.

For `O=c1n(C2CCNCC2)c2ccccc2n1S(=O)(=O)c1c(Cl)sc(Cl)c1Br` [Example 30, 1-[(4-bromo-2,5-dichlorothien-3-yl)sulfonyl]-3-piperidin-4-yl-1,3-dihydro-2H-benzimidazol-2-one], which Ki is on record?
Its Ki is 42 nM.

For `Cc1c(S(=O)(=O)n2c(=O)n(C3CCNCC3)c3ccccc32)sc2ccc(Cl)cc12` [Example 31, 1-[(5-chloro-3-methyl-1-benzothien-2-yl)sulfonyl]-3-piperidin-4-yl-1,3-dihydro-2H-benzimidazol-2-one], which Ki is on record?
Its Ki is 80 nM.

Which Ki does the source give for `O=c1n(C2CCNCC2)c2ccccc2n1S(=O)(=O)c1c(Cl)nc2sccn12` [Example 32, 1-[(6-chloroimidazo[2,1-b][1,3]thiazol-5-yl)sulfonyl]-3-piperidin-4-yl-1,3-dihydro-2H-benzimidazol-2-one] here?
The Ki was 46 nM.

For `O=c1n(C2CCNCC2)c2ccccc2n1S(=O)(=O)c1c(Cl)nc2sc(Cl)cn12` [Example 33, 1-[(2,6-dichloroimidazo[2,1-b][1,3]thiazol-5-yl)sulfonyl]-3-piperidin-4-yl-1,3-dihydro-2H-benzimidazol-2-one], which Ki is on record?
The Ki was 23 nM.

For `O=c1n(C2CCNCC2)c2ccccc2n1S(=O)(=O)c1c(Cl)nc2ccccn12` [Example 34, 1-[(2-chloroimidazo[1,2-a]pyridin-3-yl)sulfonyl]-3-piperidin-4-yl-1,3-dihydro-2H-benzimidazol-2-one], which Ki is on record?
Its Ki is 77 nM.

How did the Ki turn out when `O=c1n(C2CCNCC2)c2ccccc2n1S(=O)(=O)c1cccc2nsnc12` [Example 38, 1-[(2,1,3-benzothiadiazol-4-yl)sulfonyl]-3-piperidin-4-yl-1,3-dihydro-2H-benzimidazol-2-one] was run?
The Ki was 45 nM.

How did the Ki turn out when `O=c1n(C2=CCNCC2)c2ccccc2n1S(=O)(=O)c1ccc2ccccc2c1` [Example 39, 1-(2-naphthylsulfonyl)-3-(1,2,3,6-tetrahydropyridin-4-yl)-1,3-dihydro-2H-benzimidazol-2-one] was run?
Its Ki is 6 nM.

`O=c1n(C2=CCNCC2)c2ccccc2n1S(=O)(=O)c1ccc(Cl)s1` [Example 40, 1-[(5-chlorothien-2-yl)sulfonyl]-3-(1,2,3,6-tetrahydropyridin-4-yl)-1,3-dihydro-2H-benzimidazol-2-one] was tested. Which Ki did it give?
The Ki was 5 nM.

`O=c1n(C2=CCNCC2)c2ccccc2n1S(=O)(=O)c1ccc(Br)s1` [Example 41, 1-[(5-bromothien-2-yl)sulfonyl]-3-(1,2,3,6-tetrahydropyridin-4-yl)-1,3-dihydro-2H-benzimidazol-2-one] was tested. Which Ki did it give?
Its Ki is 4 nM.

Which Ki does the source give for `O=c1n(C2=CCNCC2)c2ccccc2n1S(=O)(=O)c1cc(Cl)c(Cl)s1` [Example 42, 1-[(4,5-dichlorothien-2-yl)sulfonyl]-3-(1,2,3,6-tetrahydropyridin-4-yl)-1,3-dihydro-2H-benzimidazol-2-one] here?
Its Ki is 15 nM.

For `O=c1n(C2=CCNCC2)c2ccccc2n1S(=O)(=O)c1cc(Cl)sc1Cl` [Example 43, 1-[(2,5-dichlorothien-3-yl)sulfonyl]-3-(1,2,3,6-tetrahydropyridin-4-yl)-1,3-dihydro-2H-benzimidazol-2-one], which Ki is on record?
The Ki was 9 nM.

With `O=c1n(C2=CCNCC2)c2ccccc2n1S(=O)(=O)c1sc(Cl)cc1Br` [Example 45, 1-[(3-bromo-5-chlorothien-2-yl)sulfonyl]-3-(1,2,3,6-tetrahydropyridin-4-yl)-1,3-dihydro-2H-benzimidazol-2-one] as the compound, how does the Ki read?
Its Ki is 10 nM.
